Measured values taken from ChEMBL document CHEMBL4184280, “Novel nicotinamide analog as inhibitor of nicotinamide N-methyltransferase” (Bioorg Med Chem Lett, 2018).
≈ marks a conversion by molar mass, not a printed value. Each block holds one molecule with its values, some of them ahead of it.

Key:
[1] = molecular target: T1, Nicotinamide N-methyltransferase (Homo sapiens, UniProt P40261)
T1 sequence (P40261 whole entry): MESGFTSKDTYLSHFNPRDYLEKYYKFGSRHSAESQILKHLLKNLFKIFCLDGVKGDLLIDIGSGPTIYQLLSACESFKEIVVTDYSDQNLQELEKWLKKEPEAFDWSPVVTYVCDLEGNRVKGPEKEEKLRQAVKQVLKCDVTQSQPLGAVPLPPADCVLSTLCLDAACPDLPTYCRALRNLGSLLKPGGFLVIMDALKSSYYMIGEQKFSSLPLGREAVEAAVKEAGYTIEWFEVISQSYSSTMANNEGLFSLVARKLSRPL

[2] = molecular target: T2, Nicotinamide N-methyltransferase (Mus musculus, UniProt O55239); assay: Inhibition of mouse NNMT at 30 uM preincubated for 30 mins followed by nicotinamide substrate and SAM addition measured after 60 mins by fluorescence assay
T2 sequence (O55239 whole entry): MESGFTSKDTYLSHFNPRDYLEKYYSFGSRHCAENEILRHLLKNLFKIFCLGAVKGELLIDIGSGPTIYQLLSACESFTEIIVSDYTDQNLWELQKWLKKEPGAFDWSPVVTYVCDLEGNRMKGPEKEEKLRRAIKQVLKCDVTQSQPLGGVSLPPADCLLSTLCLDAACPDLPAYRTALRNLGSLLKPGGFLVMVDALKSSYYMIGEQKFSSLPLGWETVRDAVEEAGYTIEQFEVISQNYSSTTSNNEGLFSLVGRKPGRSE

[3] = molecular target: T2, Nicotinamide N-methyltransferase; assay: Inhibition of NNMT in mouse 3T3L1 cells assessed as reduction in MNA production after 24 hrs by LC-MS/MS analysis; format: cell-based
[4] = Metabolic stability in human liver microsomes assessed as parent compound remaining after 30 mins; format: ADME, microsome; settings: read-out: Stability
[5] = Metabolic stability in rat liver microsomes assessed as parent compound remaining after 30 mins; format: ADME, microsome; settings: read-out: Stability
[6] = Metabolic stability in mouse liver microsomes assessed as parent compound remaining after 30 mins; format: ADME, microsome; settings: read-out: Stability
[7] = Solubility of the compound; format: physicochemical
Cytochrome P450 3A4 = Cytochrome P450 3A4 (Homo sapiens, UniProt P08684); assay: Inhibition of CYP3A4 (unknown origin); format: ADME
Chain of Cytochrome P450 3A4 (P08684 whole entry): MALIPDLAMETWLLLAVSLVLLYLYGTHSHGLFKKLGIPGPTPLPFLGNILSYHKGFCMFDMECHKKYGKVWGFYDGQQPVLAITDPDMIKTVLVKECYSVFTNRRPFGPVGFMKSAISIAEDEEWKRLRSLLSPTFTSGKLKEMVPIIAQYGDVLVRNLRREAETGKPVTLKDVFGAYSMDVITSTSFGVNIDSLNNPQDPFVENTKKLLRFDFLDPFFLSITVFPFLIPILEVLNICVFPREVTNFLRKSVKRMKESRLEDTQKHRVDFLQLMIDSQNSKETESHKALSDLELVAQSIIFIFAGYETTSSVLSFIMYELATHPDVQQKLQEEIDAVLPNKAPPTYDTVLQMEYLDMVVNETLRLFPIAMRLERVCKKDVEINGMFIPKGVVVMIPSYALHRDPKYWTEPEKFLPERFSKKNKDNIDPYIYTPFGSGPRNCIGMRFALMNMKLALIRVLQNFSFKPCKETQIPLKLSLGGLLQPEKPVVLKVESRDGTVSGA

Cytochrome P450 2D6 = Cytochrome P450 2D6 (Homo sapiens, UniProt P10635); assay: Inhibition of CYP2D6 (unknown origin); format: ADME
Chain of Cytochrome P450 2D6 (P10635 whole entry): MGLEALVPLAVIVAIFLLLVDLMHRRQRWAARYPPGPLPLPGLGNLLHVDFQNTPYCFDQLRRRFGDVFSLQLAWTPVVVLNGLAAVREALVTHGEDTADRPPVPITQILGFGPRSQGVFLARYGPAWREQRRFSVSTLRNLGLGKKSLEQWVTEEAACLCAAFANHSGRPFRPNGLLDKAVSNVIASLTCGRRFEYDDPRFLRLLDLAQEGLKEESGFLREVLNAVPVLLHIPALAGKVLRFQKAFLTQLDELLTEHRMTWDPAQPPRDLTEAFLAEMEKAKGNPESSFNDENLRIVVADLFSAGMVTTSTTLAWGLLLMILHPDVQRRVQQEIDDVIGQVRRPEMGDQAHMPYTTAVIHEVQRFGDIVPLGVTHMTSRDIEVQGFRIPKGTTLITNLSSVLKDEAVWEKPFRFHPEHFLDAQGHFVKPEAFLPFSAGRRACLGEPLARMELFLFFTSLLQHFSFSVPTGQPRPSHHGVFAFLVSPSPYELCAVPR

Cytochrome P450 2C9 = Cytochrome P450 2C9 (Homo sapiens, UniProt P11712); assay: Inhibition of CYP2C9 (unknown origin); format: ADME
Chain of Cytochrome P450 2C9 (P11712 whole entry): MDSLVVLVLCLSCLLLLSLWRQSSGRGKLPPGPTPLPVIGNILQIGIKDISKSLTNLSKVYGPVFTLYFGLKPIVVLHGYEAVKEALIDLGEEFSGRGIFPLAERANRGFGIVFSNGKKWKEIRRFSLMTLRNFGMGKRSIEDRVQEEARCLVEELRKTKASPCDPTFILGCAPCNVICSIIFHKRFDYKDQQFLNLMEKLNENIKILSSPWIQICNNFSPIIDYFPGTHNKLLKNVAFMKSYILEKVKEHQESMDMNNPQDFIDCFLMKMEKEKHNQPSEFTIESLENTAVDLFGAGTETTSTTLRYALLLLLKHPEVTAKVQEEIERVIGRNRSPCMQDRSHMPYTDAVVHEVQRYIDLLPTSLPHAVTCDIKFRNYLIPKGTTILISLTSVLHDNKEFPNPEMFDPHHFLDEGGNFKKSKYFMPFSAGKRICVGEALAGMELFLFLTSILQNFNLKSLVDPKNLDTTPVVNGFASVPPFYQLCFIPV

Cytochrome P450 2C19 = Cytochrome P450 2C19 (Homo sapiens, UniProt P33261); assay: Inhibition of CYP2C19 (unknown origin); format: ADME
Chain of Cytochrome P450 2C19 (P33261 whole entry): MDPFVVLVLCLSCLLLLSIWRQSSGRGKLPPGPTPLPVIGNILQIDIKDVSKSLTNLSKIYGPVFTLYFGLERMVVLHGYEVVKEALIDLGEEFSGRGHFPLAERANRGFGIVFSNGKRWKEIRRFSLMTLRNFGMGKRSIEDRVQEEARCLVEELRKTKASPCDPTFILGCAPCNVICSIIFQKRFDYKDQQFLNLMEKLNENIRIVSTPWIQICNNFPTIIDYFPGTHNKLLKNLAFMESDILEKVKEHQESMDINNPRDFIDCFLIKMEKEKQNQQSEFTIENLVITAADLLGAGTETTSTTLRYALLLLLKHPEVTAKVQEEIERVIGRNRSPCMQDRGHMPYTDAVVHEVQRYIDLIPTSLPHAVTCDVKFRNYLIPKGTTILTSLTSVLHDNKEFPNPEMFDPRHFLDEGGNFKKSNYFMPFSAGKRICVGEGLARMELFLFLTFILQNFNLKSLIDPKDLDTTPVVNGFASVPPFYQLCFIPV

[8] = Cmax in C57Bl6/N mouse at 10 mg/kg, po; format: ADME, organism-based; set-up: dose 10 mg/kg, route oral; settings: in vivo
[9] = Cmax in C57Bl6/N mouse at 1 mg/kg, iv; format: ADME, organism-based; set-up: dose 1 mg/kg, route intravenous; settings: in vivo
[10] = AUC in C57Bl6/N mouse at 10 mg/kg, po; format: ADME, organism-based; settings: in vivo
[11] = AUC in C57Bl6/N mouse at 1 mg/kg, iv; format: ADME, organism-based; settings: in vivo
[12] = Half life in C57Bl6/N mouse at 10 mg/kg, po; format: ADME, organism-based; settings: in vivo
[13] = Half life in C57Bl6/N mouse at 1 mg/kg, iv; format: ADME, organism-based; settings: in vivo
[14] = Clearance in C57Bl6/N mouse at 10 mg/kg, po or 1 mg/kg, iv; format: ADME, organism-based; settings: in vivo
[15] = Volume of distribution in C57Bl6/N mouse at 10 mg/kg, po or 1 mg/kg, iv; format: ADME, organism-based; settings: in vivo
[16] = Oral bioavailability in C57Bl6/N mouse at 10 mg/kg; format: ADME, organism-based; settings: in vivo
Mus musculus = assay: In vivo inhibition of NNMT in C57Bl6/N mouse assessed as reduction in plasma MNA level at 50 mg/kg, po measured after 2 hrs by LC-MS/MS analysis; format: functional

SMILES: CN(C)c1ccc(C(N)=O)cn1
IC50 [1]: > 30 µM

SMILES: Cn1cc(C(N)=O)ccc1=O
IC50 [1]: > 30 µM

SMILES: COc1ccc(NC(C)=O)cn1
IC50 [1]: > 30 µM

SMILES: Cc1ccc(C(N)=O)cn1
IC50 [1]: > 10 µM

SMILES: COc1ccc(C(=N)N)cn1
IC50 [1]: > 30 µM

SMILES: COc1ccc(-c2nnn[nH]2)cn1
IC50 [1]: > 30 µM

IC50 [1]: 2.36 to 2.52 µM
SMILES: COc1ccc(C(N)=O)cn1

IC50 [1]: 0.922 to 1.61 µM
SMILES: [2H]C([2H])([2H])Oc1ccc(C(N)=O)cn1

SMILES: CSc1ccc(C(N)=O)cn1
IC50 [1]: > 30 µM

SMILES: COc1cnc(C(N)=O)cn1
IC50 [1]: > 30 µM

SMILES: CCNC(=O)c1ccc(OC)nc1
IC50 [1]: > 30 µM

SMILES: CCOc1cc(C)ncc1C(N)=O
IC50 [1]: > 30 µM

SMILES: NC(=O)c1ccc(C(F)(F)F)nc1
IC50 [1]: > 30 µM

SMILES: NC(=O)c1ccc(OC(F)F)nc1
IC50 [1]: > 30 µM

SMILES: CCOc1nc(C)ccc1C(N)=O
IC50 [1]: > 30 µM

SMILES: CCc1ccc(C(N)=O)cn1
IC50 [1]: > 30 µM

SMILES: COc1ccc(C(N)=O)cc1F
IC50 [1]: > 30 µM

IC50 [2]: 4.5 µM | IC50 [3]: 2.1 µM | remaining at 0.5 h [4]: 85% | remaining at 0.5 h [5]: 97% | remaining at 0.5 h [6]: 69% | solubility [7]: 200 µM (≈ 30.2 µg/mL) | IC50 (Cytochrome P450 3A4): > 20 µM | IC50 (Cytochrome P450 2D6): > 20 µM | IC50 (Cytochrome P450 2C9): > 20 µM | IC50 (Cytochrome P450 2C19): > 20 µM | Cmax [8]: 1430 ng/mL | Cmax [9]: 587 ng/mL | AUC [10]: 1090 ng·h/mL | AUC [11]: 511 ng·h/mL | half-life [12]: 1.2 h | half-life [13]: 0.8 h | clearance [14]: 27.9 mL/min/kg | Vd [15]: 1.85 L/kg | bioavailability [16]: 19%
SMILES: CNc1ccc(C(N)=O)cn1
inhibition in vivo at 50 mg/kg (Mus musculus): 80%

SMILES: COc1ccc(C(N)=O)cc1
IC50 [1]: > 30 µM
